Measured values reported in patent US10836763B2, “5 to 7 membered heterocyclic amides as JAK inhibitors” (priority 2018, dated 2020).
Where two headings read alike, the source gives them in different places.

How the values were obtained:
[1] = test system: GM-CSF stimulated STAT5 phosphorylation in CD14+ monocytes; assay: Cellular JAK potency assay: inhibition of GM-CSF-induced pSTAT5; type: cell-based; details: Homo sapiens, Monocyte, 0.25 h, read-out: pIC50, inhibition of GM-CSF-induced pSTAT5 (converted)
Procedure: Assay 15: Cellular JAK Potency Assay: Inhibition of GM-CSF-Induced pSTAT5
The potency of test compounds for inhibition of granulocyte-macrophage colony-stimulating factor (GM-CSF) stimulated STAT5 phosphorylation was measured in CD14-positive (CD14+) monocytes derived from human whole blood (Stanford Blood Center) using flow cytometry. Because GM-CSF signals through JAK, this assay provides a measure of JAK cellular potency.
Monocytes were identified using a fluorescein isothiocyanate (FITC) conjugated anti-CD14 antibody (Clone RM052, Beckman Coulter), and an Alexa Fluor 647 conjugated anti-pSTAT5 antibody (pY694, BD Biosciences) was used to detect STAT5 phosphorylation.
Human peripheral blood mononuclear cells (PBMC) were isolated from human whole blood of healthy donors using a ficoll gradient. […] Cells were washed twice with FACS buffer, and then re-suspended in 1:10 […] Alexa Fluor 647:FACS buffer (100 μL) for 30 min at RT in the dark, washed twice in FACS buffer, and analyzed using a MACSQuant flow cytometer (Miltenyi).
To determine the inhibitory potency of the test compound, the median fluorescent intensity (MFI) of pSTAT5 was measured in CD14+ monocytes. IC50 values were determined from analysis of the inhibition curves of MFI vs compound concentration. Data are expressed as pIC50 (negative decadic logarithm IC50) values.

[2] = test system: IL-12 stimulated STAT4 phosphorylation in CD3+ T cells; assay: Cellular JAK potency assay: inhibition of IL-12-induced pSTAT4; type: cell-based; details: Homo sapiens, T-cell, 0.5 h, read-out: pIC50, inhibition of IL-12-induced pSTAT4 (converted)
Procedure: Assay 16: Cellular JAK Potency Assay: Inhibition of IL-12-Induced pSTAT4
The potency of test compounds for inhibition of interleukin-12 (IL-12) stimulated STAT4 phosphorylation was measured in CD3-positive (CD3+) T cells derived from human whole blood (Stanford Blood Center) using flow cytometry. Because IL-12 signals through JAK, this assay provides a measure of JAK cellular potency.
CD3+ T cells were identified using a phycoerythrin (PE) conjugated anti-CD3 antibody (clone UCHT1, BD Biosciences), and an Alexa Fluor 647 conjugated anti-pSTAT4 antibody (clone 38/p-Stat4, BD Biosciences) was used to detect STAT4 phosphorylation.
Human peripheral blood mononuclear cells (PBMC) were isolated from human whole blood of healthy donors using a ficoll gradient. […] After incubation, cells were washed twice in FACS buffer before being analyzed using a MACSQuant flow cytometer (Miltenyi). To determine the inhibitory potency of the test compound, the median fluorescent intensity (MFI) of pSTAT4 was measured in CD3+ T cells. IC50 values were determined from analysis of the inhibition curves of MFI vs compound concentration. Data are expressed as pIC50 (negative decadic logarithm IC50) values.

| Compound | IC50 ([1]; CD14+ monocytes, GM-CSF 0.3 ng/mL, 15 min, flow cytometry) [nM] | IC50 ([2]; CD3+ T cells, IL-12 10 ng/mL, 30 min, flow cytometry) [nM] | IC50 [1] [nM] | IC50 [2] [nM] |
| --- | --- | --- | --- | --- |
| CCCN1Cc2[nH]c(-c3n[nH]c4cc(-c5ccc(O)cc5CC)ccc34)nc2C[C@H]1C(=O)N1CCN(CCO)CC1 [Compound 1, (S)-(2-(6-(2-ethyl-4-hydroxyphenyl)-1H-indazol-3-yl)-5-propyl-4,5,6,7-tetrahydro-3H-imidazo[4,5-c]pyridin-6-yl)(4-(2-hydroxyethyl)piperazin-1-yl)methanone] | 200 | 631 | – | – |
| CCc1cc(O)ccc1-c1ccc2c(-c3nc4c([nH]3)CN(C(C)C)[C@H](C(=O)N3CCCN(C)CC3)C4)n[nH]c2c1 [Compound 4, (S)-(2-(6-(2-ethyl-4-hydroxyphenyl)-1H-indazol-3-yl)-5-isopropyl-4,5,6,7-tetrahydro-3H-imidazo[4,5-c]pyridin-6-yl)(4-methyl-1,4-diazepan-1-yl)methanone] | – | – | 200 | 1000 |
